According to patent publication US20230348358A1, “Serotonin Receptor Modulators” (Northeastern University, priority 2020, published 2023):
Values joined by “and” are separate entries in the source; they are usually repeats but may differ in a detail not shown here. Identical values can stand only once. Like-named read-outs stand apart in the source and are kept apart here. Blank lines part the entries; values can stand above or below the molecule they belong to.

Legend:
5HT1A [1] = biological target: T1, 5HT1A (Homo sapiens, UniProt P08908); assay: Affinity (Ki) at 5HT1A, transfected HEK cells
T1 sequence (P08908 1-422): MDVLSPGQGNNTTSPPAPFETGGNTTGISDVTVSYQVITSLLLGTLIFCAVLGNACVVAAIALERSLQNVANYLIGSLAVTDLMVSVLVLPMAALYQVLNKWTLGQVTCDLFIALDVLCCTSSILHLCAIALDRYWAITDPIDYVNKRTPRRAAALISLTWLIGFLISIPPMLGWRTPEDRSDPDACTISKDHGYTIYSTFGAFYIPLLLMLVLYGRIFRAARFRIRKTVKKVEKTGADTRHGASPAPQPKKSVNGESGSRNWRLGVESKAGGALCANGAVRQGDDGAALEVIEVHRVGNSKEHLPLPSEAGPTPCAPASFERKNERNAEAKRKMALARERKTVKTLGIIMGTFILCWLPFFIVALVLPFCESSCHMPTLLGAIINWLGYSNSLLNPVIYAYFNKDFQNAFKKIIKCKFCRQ

5HT7 [2] = biological target: T2, 5HT7 (Homo sapiens, UniProt P34969); assay: Affinity (Ki) at 5HT7, HEK293 cells stably expressing 5HT7
T2 sequence (P34969 whole entry): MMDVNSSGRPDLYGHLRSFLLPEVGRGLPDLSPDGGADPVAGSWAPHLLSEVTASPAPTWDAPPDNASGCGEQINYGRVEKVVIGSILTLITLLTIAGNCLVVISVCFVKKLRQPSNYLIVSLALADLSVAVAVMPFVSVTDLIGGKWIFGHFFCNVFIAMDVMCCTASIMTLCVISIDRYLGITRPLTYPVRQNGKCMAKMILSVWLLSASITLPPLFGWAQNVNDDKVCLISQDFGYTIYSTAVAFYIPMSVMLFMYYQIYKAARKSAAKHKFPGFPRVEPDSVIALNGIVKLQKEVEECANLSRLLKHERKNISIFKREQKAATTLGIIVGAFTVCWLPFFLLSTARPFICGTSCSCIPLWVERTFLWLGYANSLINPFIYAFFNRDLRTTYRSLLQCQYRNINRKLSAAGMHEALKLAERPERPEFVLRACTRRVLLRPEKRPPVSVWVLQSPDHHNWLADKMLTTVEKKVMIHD

C57BL/6J mice = assay: DOI-elicited head-twitch response (HTR); type: in vivo, mouse; conditions: mouse, in vivo; further: test concentration or dose not given here
Excerpt: The 5-HT2A receptor is a predominant 5-HT receptor in the cortex, and serves important excitation modulation functions on glutamate pyramidal and GABA neurons.

[3] = test system: mice (C57BL/6J, FVB, C58/J); assay: Locomotor behavior, compound on its own; type: in vivo, mouse; conditions: for Locomotor behavior: compound on its own or in the DOI assay
BL/6J mice = assay: Serotonin syndrome-like behavior observation; type: in vivo, mouse; conditions: mouse, in vivo; further: test concentration or dose not given here
5HT2A receptors [4] = biological target: T3, 5HT2A receptors (Homo sapiens, UniProt P28223); assay: biochemical; type: binding
T3 construct: host or cells: HEK293, transient
T3 sequence (P28223 whole entry): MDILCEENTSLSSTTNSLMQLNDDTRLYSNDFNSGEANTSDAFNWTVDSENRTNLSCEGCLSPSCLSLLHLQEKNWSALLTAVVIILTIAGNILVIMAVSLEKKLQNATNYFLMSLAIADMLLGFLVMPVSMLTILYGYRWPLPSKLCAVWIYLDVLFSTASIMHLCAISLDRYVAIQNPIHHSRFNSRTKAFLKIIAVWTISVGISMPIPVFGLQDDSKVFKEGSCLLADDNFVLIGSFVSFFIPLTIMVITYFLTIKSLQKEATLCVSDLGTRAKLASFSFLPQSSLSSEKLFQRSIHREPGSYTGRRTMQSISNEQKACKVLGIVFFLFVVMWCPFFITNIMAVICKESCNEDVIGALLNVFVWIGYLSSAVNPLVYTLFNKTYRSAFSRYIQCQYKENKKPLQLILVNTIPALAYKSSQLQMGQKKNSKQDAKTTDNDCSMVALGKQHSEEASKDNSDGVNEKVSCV

5HT2A receptors [5] = biological target: T3, 5HT2A receptors; assay: 5-HT2A function in HEK cells over-expressing the receptor; type: cell-based
5HT7 [6] = biological target: T2, 5HT7; assay: 5HT7 function, Gs-cAMP signaling (HEK293 cells); type: cell-based; design: ATCC CRL-1573 (cells); conditions: for Function at 5HT7: cAMP signaling
Excerpt: It is certain that the C(5) substituent impacts function. […] In FIG. 3, results of measured (S)-5-PAT scaffold yields with various function as 5HT7 ligands are compared with AS-19 and clozapine.

5HT1A [7] = biological target: T1, 5HT1A; assay: 5HT1A function, Gαi cAMP signaling (CHO cells); type: cell-based
5HT2B receptors [8] = biological target: T4, 5HT2B receptors (Homo sapiens, UniProt P41595); assay: Affinity at 5HT2B receptors; type: binding
T4 construct: host or cells: HEK293, transient
T4 sequence (P41595 whole entry): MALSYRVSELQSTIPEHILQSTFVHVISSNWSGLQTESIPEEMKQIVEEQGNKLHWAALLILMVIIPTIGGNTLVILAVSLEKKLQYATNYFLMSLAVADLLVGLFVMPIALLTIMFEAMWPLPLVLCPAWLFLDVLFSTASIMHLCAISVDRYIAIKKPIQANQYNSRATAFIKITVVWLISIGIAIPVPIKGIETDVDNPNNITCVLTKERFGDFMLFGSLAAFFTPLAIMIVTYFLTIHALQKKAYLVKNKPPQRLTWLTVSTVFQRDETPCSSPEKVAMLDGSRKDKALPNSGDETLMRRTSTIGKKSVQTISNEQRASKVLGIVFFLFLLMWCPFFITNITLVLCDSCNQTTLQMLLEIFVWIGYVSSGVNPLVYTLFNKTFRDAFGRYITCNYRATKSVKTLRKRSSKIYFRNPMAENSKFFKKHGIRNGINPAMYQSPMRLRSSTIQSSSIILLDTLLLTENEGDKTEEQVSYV

5HT2B receptors [9] = biological target: T4, 5HT2B receptors; assay: 5HT2B functional assays; type: cell-based
5HT2C receptors = biological target: T5, 5HT2C receptors (Homo sapiens, UniProt P28335); assay: 5HT2C functional assay; type: cell-based
T5 construct: host or cells: HEK293, transient
T5 sequence (P28335 33-458): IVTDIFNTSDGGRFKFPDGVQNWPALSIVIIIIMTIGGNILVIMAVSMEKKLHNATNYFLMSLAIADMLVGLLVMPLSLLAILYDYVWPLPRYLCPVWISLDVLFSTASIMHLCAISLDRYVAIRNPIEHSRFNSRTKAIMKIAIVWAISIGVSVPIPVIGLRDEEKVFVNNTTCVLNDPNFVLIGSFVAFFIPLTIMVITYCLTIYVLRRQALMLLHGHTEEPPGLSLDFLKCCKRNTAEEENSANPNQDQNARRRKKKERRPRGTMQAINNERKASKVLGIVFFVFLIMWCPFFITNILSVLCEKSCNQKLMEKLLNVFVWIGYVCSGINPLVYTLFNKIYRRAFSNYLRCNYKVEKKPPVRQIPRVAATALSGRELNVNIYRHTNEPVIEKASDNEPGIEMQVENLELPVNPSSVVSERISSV

50 CNS/peripheral sites = assay: NIMH PDSP / NIDA evaluation at 50 CNS/peripheral sites; type: binding
5HT7 [10] = biological target: T2, 5HT7; design: ATCC CRL-1573 (cells); conditions: cited from earlier work
5HT7 [11] = biological target: T2, 5HT7; design: ATCC CRL-1573 (cells); conditions: reported human receptor data; cited from earlier work
[12] = read-out: Affinity Ki ± SEM at 5HT7
[13] = read-out: Affinity Ki ± SEM at 5HT1A

- Ki (5HT1A [1]): 1.3 ± 0.1 nM
- Ki (5HT7 [2]): 51 ± 8 nM
SMILES: Fc1ccccc1-c1cccc2c1CCC(N1CCCC1)C2 (racemic) [(R/S)-5-FPyT, 1-(5-(2-fluorophenyl)-1,2,3,4-tetrahydronaphthalen-2-yl)-pyrrolidine]

SMILES: CCCN(CCC)C1CCc2cccc(O)c2C1 (single isomer, unassigned; (+)) [(+)-DPAT, reference compound]
- DOI-elicited HTR (C57BL/6J mice): suppressed the DOI HTR
- Locomotor behavior [3]: severe hypolocomotion
- Serotonin syndrome (BL/6J mice): obvious serotonin syndrome

SMILES: CN(C)[C@@H]1CCc2c(cccc2-c2ccccc2F)C1 [(2R)-5-FPT]
- Affinity at 5-HT2A receptors (5HT2A receptors [4]; human and mouse 5-HT2A receptors, compared with (2S)-5-FPT): substantially higher affinity
- Function at 5-HT2A receptors (5HT2A receptors [5]): neutral antagonist function
- DOI-elicited HTR (C57BL/6J mice): substantially less efficacious than (2S)-5-FPT
- 5-HT7 agonist potency of (R)-enantiomer less than (S)-isomer (5HT7 [6]): about 11 times
- EC50 (5HT7 [6]): 378 nM
- EMAX vs AS-19, 5-HT7 Gs-cAMP signaling (5HT7 [6]): 29%
- Function at 5HT7 (5HT7 [6]): partial agonism
- Ki (5HT7 [2]; Affinity Ki ± SEM at 5HT7): 750 nM and ~460 nM

SMILES: CCCN(CCC)[C@H]1CCc2c(cccc2-c2ccccc2Cl)C1 [(S)-5-CPPT, (2S)-5-(2′-chlorophenyl)-N,N-dipropyl-1,2,3,4-tetrahydronaphtha-len-2-amine]
- Function at 5HT7 (5HT7 [6]): Full agonist
- Ki (5HT1A [1]): 0.6 ± 0.2 nM
- Ki (5HT7 [2]; [12]): 5.9 ± 1 nM

SMILES: CN(C)[C@H]1CCc2c(cccc2-c2ccccc2Cl)C1.Cl [(S)-5-CPT, (2S)-5-(2-chlorophenyl)-N,N-dimethyl-1,2,3,4-tetrahydronaphthalen-2-amine HCl]
- Function at 5HT1A (5HT1A [7]): Partial agonist
- Ki (5HT2A receptors [4]): ~500 nM
- Ki (5HT2B receptors [8]): 11 nM
- 5HT2B functional activity (5HT2B receptors [9]): devoid of 5HT2B activity up to 100 μM
- Agonist efficacy/potency at 5HT2C receptors (5HT2C receptors): less potency and efficacy
- Activity at 50 CNS/peripheral sites (50 CNS/peripheral sites): without activity at 50 CNS/peripheral sites
- Function at 5HT7 (5HT7 [6]): Partial agonist
- Ki (5HT1A [1]; [13]): 7.5 ± 1.5 nM
- Ki (5HT7 [2]; [12]): 1 ± 0.12 nM

SMILES: CN(C)[C@H]1CCc2c(cccc2-c2cccc3ccccc23)C1 [(S)-5-NaT, (2S)—N,N-dimethyl-5,6,7,8-tetrahydro-[1,1′-binaphthalen]-6-amine]
- Function at 5HT1A (5HT1A [7]): Partial agonist
- Function at 5HT7 (5HT7 [6]): Partial agonist
- Ki (5HT1A [1]; [13]): 64 ± 12 nM
- Ki (5HT7 [2]; [12]): 5.2 ± 1.1 nM

SMILES: CCCN(CCC)[C@H]1CCc2c(cccc2-c2ccccc2)C1.Cl [(S)-5-PPT, (2S)-5-phenyl-N,N-dipropyl-1,2,3,4-tetrahydronaphthalen-2-amine HCl]
- Function at 5HT7 (5HT7 [6]): Full agonist
- Ki (5HT1A [1]; [13]): 5.9 ± 1.1 nM
- Ki (5HT7 [2]; [12]): 34 ± 3 nM

SMILES: CN(C)[C@H]1CCc2c(cccc2-c2ccccc2)C1.Cl [(S)-5-PT, N,N-dimethyl-5-phenyl-1,2,3,4-tetrahydronaphthalen-2-amine HCl]
- Function at 5HT1A (5HT1A [7]): Partial agonist
- Function at 5HT7 (5HT7 [6]): Neutral antagonist
- Ki (5HT1A [1]): 22 ± 3 nM
- Ki (5HT7 [2]; Affinity Ki ± SEM at 5HT7): 9.5 ± 1.5 nM

SMILES: CN(C)[C@H]1CCc2c(cccc2-c2cccn2C)C1 [(S)-5-PyT]
- Function at 5HT1A (5HT1A [7]): Partial agonist
- Function at 5HT1A (5HT1A [7]; listed as 5-PyT): agonist at 5HT1A/Gαi
- Function at 5HT1A (5HT1A [7]; listed as (2S)-5-PyT): agonist
- Function at 5HT7 (5HT7 [6]): Inverse agonist
- Function at 5HT7 (5HT7 [6]; listed as 5-PyT): inverse agonist at 5HT7/Gαs
- Function at 5HT7 (5HT7 [6]; listed as (2S)-5-PyT): inverse agonist
- Ki (5HT1A [1]): 24 ± 0.2 nM
- Ki (5HT7 [2]; Affinity Ki ± SEM at 5HT7): 33 ± 4 nM

SMILES: Cc1nn(C)c(C)c1-c1cccc2c1CC[C@H](N(C)C)C2 [(S)-AS-19, (2S)-5-trimethylpyrazolyl-2-dimethyl-aminotetralin, reference compound]
- DOI-elicited HTR (C57BL/6J mice): suppressed the DOI HTR
- Locomotor behavior [3]: neither (—)-DPAT, a 5-HT1A partial agonist, nor AS-19 affected locomotor behavior
- Serotonin syndrome (BL/6J mice): neither (—)-DPAT, a 5-HT1A partial agonist, nor AS-19 affected locomotor behavior or caused obvious serotonin syndrome
- Function at 5HT7 (5HT7 [6]): Partial agonist
- Ki (5HT1A [1]; [13]): 240 nM
- Selectivity for 5HT7 over 5HT1A (5HT7 [2]; from Ki of Table 1): 20 fold
- Ki (5HT7 [2]; [12]): 12 nM

SMILES: CCCN(CCC)C1CCc2cccc(O)c2C1 (stereo not drawn) [(—)-DPAT, reference compound]
- DOI-elicited HTR (C57BL/6J mice): suppressed the DOI HTR
- Locomotor behavior [3]: neither (—)-DPAT, a 5-HT1A partial agonist, nor AS-19 affected locomotor behavior
- Serotonin syndrome (BL/6J mice): neither (—)-DPAT, a 5-HT1A partial agonist, nor AS-19 affected locomotor behavior or caused obvious serotonin syndrome

SMILES: O=C1CC2(CCCC2)CC(=O)N1CCCCN1CCN(c2ncccn2)CC1 [Buspirone, reference compound]
- Function at 5HT1A (5HT1A [7]): Partial agonist
- DOI-elicited HTR (C57BL/6J mice): reduces DOI-elicited repetitive behavior
- Catatonia ([3]; 3 mg/kg, by itself): causes stupor-like catatonia
- Locomotor behavior [3]: reduces locomotor behavior

SMILES: CCCN(CCC)[C@@H]1CCc2cccc(O)c2C1 [Compound 8-OH-DPAT, (R)-8-hydroxy-2-(n-di-propylamino)tetralin]
- Function at 5HT7 (literature) (5HT7 [10]): low-potency 5HT7 partial agonist

SMILES: N#Cc1ccc(CNC(=O)CCCCCN2CCN(c3ccccc3-c3ccccc3)CC2)cc1 [LP-211]
- Selectivity for 5HT7 over 5HT1A receptors (5HT7 [11]): about 25 X
